Source: US5571793A, “Endoparasiticidal compositions based on open-chain tetradepsipeptides” (Bayer Aktiengesellschaft, priority 1993, dated 1996)

Test system: Haemonchus contortus
Experiment: In vivo nematode test Haemonchus contortus/sheep
Conditions: sheep infected experimentally with Haemonchus contortus; pure active compound orally and/or intravenously; dose at which nematode egg excretion with the faeces stops completely
Experimental: Sheep which had been infected experimentally with Haemonchus contortus were treated after the prepatency period of the parasites had elapsed. The active compounds were administered orally and/or intravenously in the form of the pure active compound.
The degree of effectiveness is determined by quantitatively determining the nematode eggs excreted with the faeces before and after the treatment.
If egg excretion stops completely after the treatment, this means that the nematodes have been aborted or damaged in such a manner that they no longer produce eggs (dosis effectiva).
Active compounds which have been tested and effective dosage rates (dosis effectiva) can be seen from the Table which follows: […]

SMILES	Dosis effectiva [mg/kg]
CCN[C@@H](CC(C)C)C(=O)O[C@H](C)C(=O)N(CC)[C@@H](CC(C)C)C(=O)O[C@H](Cc1ccccc1)C(=O)OC(C)(C)C [Example 1, tert.-Butyl-N-ethyl-L-leucyl-D-lactyl-N-ethyl-L-leucyl-D-3-phenyllactate]	10
CCCN(Cc1ccccc1)[C@@H](CC(C)C)C(=O)O[C@H](C)C(=O)N(CCC)[C@@H](CC(C)C)C(=O)O[C@H](Cc1ccccc1)C(=O)O [Example 2, N-Benzyl-N-propyl-L-leucyl-D-lactyl-N-propyl-L-leucyl-D-phenyllactic acid]	10
CN[C@@H](Cc1ccccc1)C(=O)O[C@H](C)C(=O)N(C)[C@H](Cc1ccccc1)C(=O)O[C@H](C)C(=O)OC(C)(C)C [Example 3, tert.-Butyl-N-methyl-L-phenylalanyl-D-lactyl-N-methyl-D-phenylalanyl-D-lactate]	10
